Counter-ions that a name gives are not always drawn.

Common to all, as to experiment: Method 1: intracellular Ca2+ release (FLIPR, Calcium 5) in recombinant CHO-K1 cells
Type in all cases: cell-based

For one assay, the target named is T1, human S1PR1 receptor (Homo sapiens, UniProt P21453).
T1 construct: host or cells: CHO-K1
The settings on record: (1): determined with method 1; read-out: S1P1 EC50. A digest of the protocol: (§1)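 Agonist EC50; CHO-K1 + Gq/i5 + aequorin; Calcium 5 dye 1 h 37 °C, 45 min RT; serial-dilution compound add; FLIPR read; normalized to phospho-fingolimod.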

In a further assay the target is T2, human S1PR3 receptor (Homo sapiens, UniProt Q99500).
T2 construct: host or cells: CHO-K1
The settings on record: (1): determined with method 1; read-out: S1P3 EC50. A digest of the protocol: as §1

In the next assay the target is T3, human S1PR4 receptor (Homo sapiens, UniProt O95977).
T3 construct: host or cells: CHO-K1
T3 sequence (O95977 1-384): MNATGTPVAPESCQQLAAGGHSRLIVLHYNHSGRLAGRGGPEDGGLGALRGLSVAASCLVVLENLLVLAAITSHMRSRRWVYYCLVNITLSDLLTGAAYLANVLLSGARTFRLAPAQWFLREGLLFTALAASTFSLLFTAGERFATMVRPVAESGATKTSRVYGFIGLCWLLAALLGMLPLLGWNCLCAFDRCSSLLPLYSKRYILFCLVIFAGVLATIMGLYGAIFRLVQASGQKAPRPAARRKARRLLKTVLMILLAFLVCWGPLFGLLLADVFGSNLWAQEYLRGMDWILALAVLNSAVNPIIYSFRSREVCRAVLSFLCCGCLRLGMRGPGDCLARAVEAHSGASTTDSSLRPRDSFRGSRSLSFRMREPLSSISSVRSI
To be noted: (1): determined with method 1; read-out: S1P4 EC50. A digest of the protocol:
as §1

The target of the next assay is T4, human S1PR5 receptor (Homo sapiens, UniProt Q9H228).
T4 construct: host or cells: CHO-K1
To be noted: agonist potency, determined with method 1 (symbols A-D); read-out: S1P5 EC50 range. Summed up: as §1

T4 sequence (Q9H228 whole entry): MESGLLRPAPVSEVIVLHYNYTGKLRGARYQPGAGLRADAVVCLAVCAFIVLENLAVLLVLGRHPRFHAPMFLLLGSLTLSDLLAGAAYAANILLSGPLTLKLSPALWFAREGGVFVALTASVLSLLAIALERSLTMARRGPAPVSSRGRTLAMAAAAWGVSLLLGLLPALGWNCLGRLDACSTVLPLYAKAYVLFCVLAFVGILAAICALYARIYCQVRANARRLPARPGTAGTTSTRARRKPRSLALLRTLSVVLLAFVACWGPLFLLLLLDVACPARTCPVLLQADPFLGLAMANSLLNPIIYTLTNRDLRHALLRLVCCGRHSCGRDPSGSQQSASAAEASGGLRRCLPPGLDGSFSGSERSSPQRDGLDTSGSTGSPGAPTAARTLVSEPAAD
T2 sequence (Q99500 whole entry): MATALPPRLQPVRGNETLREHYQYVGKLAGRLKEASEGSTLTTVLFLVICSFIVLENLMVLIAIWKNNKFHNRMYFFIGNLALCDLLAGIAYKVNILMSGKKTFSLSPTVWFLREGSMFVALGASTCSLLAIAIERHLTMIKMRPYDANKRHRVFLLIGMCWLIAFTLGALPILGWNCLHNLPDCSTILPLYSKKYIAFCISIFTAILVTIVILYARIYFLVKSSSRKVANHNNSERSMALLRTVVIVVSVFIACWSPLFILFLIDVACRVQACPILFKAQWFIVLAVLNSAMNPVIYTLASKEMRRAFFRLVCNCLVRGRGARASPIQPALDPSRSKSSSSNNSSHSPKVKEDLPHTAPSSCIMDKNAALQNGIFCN
T1 sequence (P21453 whole entry): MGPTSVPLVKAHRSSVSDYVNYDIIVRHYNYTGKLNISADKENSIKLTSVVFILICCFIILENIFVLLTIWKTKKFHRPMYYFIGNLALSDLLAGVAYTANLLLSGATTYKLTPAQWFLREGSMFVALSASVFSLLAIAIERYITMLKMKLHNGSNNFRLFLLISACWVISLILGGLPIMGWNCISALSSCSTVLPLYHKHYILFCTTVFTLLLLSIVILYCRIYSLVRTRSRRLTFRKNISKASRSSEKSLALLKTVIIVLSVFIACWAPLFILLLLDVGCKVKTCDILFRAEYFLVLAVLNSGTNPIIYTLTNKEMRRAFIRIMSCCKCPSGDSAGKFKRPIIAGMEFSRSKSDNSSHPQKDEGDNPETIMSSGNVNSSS

As to `CC(CC(=O)O)CN1CCc2nc(-c3ccc(OCc4ccc(C(F)(F)F)cc4)cc3F)ncc2C1` (stereo not drawn) [Compound 263, 4-[2-[2-fluoro-4-[[4-(trifluoromethyl)phenyl]methoxy]phenyl]-7,8-dihydro-5H-pyrido[4,3-d]pyrimidin-6-yl]-3-methyl-butanoic acid 2,2,2-trifluoroacetic acid salt], the concentration for a half-maximal effect (EC50) is more than 1000 nM on human S1PR1 receptor, more than 1000 nM on human S1PR3 receptor, more than 1000 nM on human S1PR4 receptor and 10 to 100 nM at human S1PR5 receptor.

With `O=C(O)C1(CN2CCc3nc(-c4ccc(OCc5cccc(Cl)c5)cc4)ncc3C2)CC1` [Compound 1, 1-((2-(4-((3-chlorobenzyl)oxy)phenyl)-7,8-dihydropyrido[4,3-d]pyrimidin-6(5H)-yl)methyl)cyclopropanecarboxylic acid], the EC50 is more than 1000 nM on human S1PR1 receptor, more than 1000 nM at human S1PR3 receptor, more than 1000 nM on human S1PR4 receptor and 100 to 1000 nM at human S1PR5 receptor.

For the compound `O=C(O)CC1CC(N2CCc3nc(-c4ccc(OCc5ccc(Cl)cc5)cc4)ncc3C2)C1` (stereo not drawn) [Compound 2, 2-(3-(2-(4-((4-chlorobenzyl)oxy)phenyl)-7,8-dihydropyrido[4,3-d]pyrimidin-6(5H)-yl)cyclobutyl)acetic acid], the EC50 was more than 1000 nM at human S1PR1 receptor, more than 1000 nM at human S1PR3 receptor, more than 1000 nM at human S1PR4 receptor and 100 to 1000 nM at human S1PR5 receptor.

For `O=C(O)C1(CN2CCc3nc(-c4ccc(OCc5ccc(Cl)cc5)cc4)ncc3C2)CC1` [Compound 215, 1-((2-(4-((4-chlorobenzyl)oxy)phenyl)-7,8-dihydropyrido[4,3-d]pyrimidin-6(5H)-yl)methyl)cyclopropanecarboxylic acid], the EC50 on human S1PR1 receptor is more than 1000 nM; on human S1PR3 receptor, more than 1000 nM; on human S1PR4 receptor, more than 1000 nM; on human S1PR5 receptor, 1000 to 10000 nM.

In the case of `O=C(O)C1CC(N2CCc3nc(C#Cc4ccccc4Cl)ncc3C2)C1` (stereo not drawn) [Compound 60, 3-(2-((2-chlorophenyl)ethynyl)-7,8-dihydropyrido[4,3-d]pyrimidin-6(5H)-yl)cyclobutanecarboxylic acid], the EC50 at human S1PR1 receptor is more than 1000 nM; on human S1PR3 receptor it was more than 1000 nM; at human S1PR4 receptor, more than 1000 nM; on human S1PR5 receptor, 1000 to 10000 nM.

As to `Cc1cccc(C)c1COc1ccc(-c2ncc3c(n2)CCN(CC(=O)O)C3)cc1` [Compound 33, 2-(2-(4-((2,6-dimethylbenzyl)oxy)phenyl)-7,8-dihydropyrido[4,3-d]pyrimidin-6(5H)-yl)acetic acid], the EC50 on human S1PR1 receptor is more than 1000 nM; at human S1PR3 receptor, less than 1000 nM; on human S1PR4 receptor, less than 1000 nM; at human S1PR5 receptor it was 100 to 1000 nM.

In the case of `CC(CN1CCc2nc(-c3ccc(OCc4ccc(Cl)cc4)cc3)ncc2C1)C(=O)O` (stereo not drawn) [Compound 12, 3-(2-(4-((4-chlorobenzyl)oxy)phenyl)-7,8-dihydropyrido[4,3-d]pyrimidin-6(5H)-yl)-2-methylpropanoic acid], the concentration for a half-maximal effect (EC50) on human S1PR1 receptor was more than 1000 nM; at human S1PR3 receptor, more than 1000 nM; on human S1PR4 receptor it was more than 1000 nM; at human S1PR5 receptor, less than 10 nM.

With `CC(CC(=O)O)CN1CCc2nc(-c3ccc(CCc4ccc(Cl)cc4)cc3)ncc2C1` (stereo not drawn) [Compound 244, 4-(2-(4-(4-chlorophenethyl)phenyl)-7,8-dihydropyrido[4,3-d]pyrimidin-6(5H)-yl)-3-methylbutanoic acid], the half-maximal effective concentration (EC50) on human S1PR1 receptor is more than 1000 nM; on human S1PR3 receptor, more than 1000 nM; on human S1PR4 receptor, more than 1000 nM; on human S1PR5 receptor, less than 10 nM.

Turning to `O=C(O)C1CC(N2CCc3nc(C#Cc4cc(F)cc(F)c4)ccc3C2)C1` (stereo not drawn) [Compound 127, 3-(2-((3,5-difluorophenyl)ethynyl)-7,8-dihydro-1,6-naphthyridin-6(5H)-yl)cyclobutanecarboxylic acid], the EC50 at human S1PR1 receptor was more than 1000 nM; on human S1PR3 receptor, more than 1000 nM; on human S1PR4 receptor, more than 1000 nM; on human S1PR5 receptor, 1000 to 10000 nM.

As a reminder, the EC50 is the concentration at which the effect is half-maximal.

Values taken from patent US10556907B2 (AbbVie Inc., priority 2015, dated 2020).
